Earlier results as cited in patent publication US20250288728A1, “SYSTEMS AND METHODS FOR GEL-BASED NEUROMODULATION” (Tulavi Therapeutics, Inc., priority 2018, published 2025).

Key:
[1] = tested on: TRPV1 expressing cardiac nerve endings; conditions: 50 μg/ml RTX (10% ethanol in 10% Tween 80/isotonic saline) painted twice on right and left ventricles
sympathetic ganglia = conditions: in vitro; 4 μg/ml (10 uM); within 36 hours

Molecule | duration of complete ablation of TRPV1 expressing cardiac nerve endings [1] | sympathetic ganglia cell death (sympathetic ganglia)
C=C(C)[C@]12C[C@@H](C)[C@@]34O[C@](Cc5ccccc5)(O[C@@H]1[C@@H]3C=C(COC(=O)Cc1ccc(O)c(OC)c1)C[C@]1(O)C(=O)C(C)=C[C@@H]41)O2 [RTX, resiniferatoxin] | over 10 weeks | –
Cholesterol oxides | – | rapid cell sympathetic ganglia cell death
